Source: ChEMBL document CHEMBL4414672, “Synthesis of certain benzothieno[3,2-d]pyrimidine derivatives as a selective SIRT2 inhibitors” (Eur J Med Chem, 2020)
Values after ≈ are worked out from the molar mass of the structure shown.

Legend:
MCF7 = assay: Cytotoxicity against human MCF7 cells assessed as reduction in cell viability after 24 hrs by MTT assay; format: functional, cell-based; settings: MCF7, 24 h
UO-31 [1] = assay: Cytotoxicity against human UO31 cells assessed as reduction in cell viability after 24 hrs by MTT assay; format: functional, cell-based; settings: UO-31, 24 h
[2] = target: T1, NAD-dependent protein deacetylase sirtuin-2 (Homo sapiens, UniProt Q8IXJ6); assay: Inhibition of SIRT2 (unknown origin) using fluorogenic substrate assessed as deacetylase activity incubated for 45 mins by fluorescence assay
T1 sequence (Q8IXJ6 whole entry): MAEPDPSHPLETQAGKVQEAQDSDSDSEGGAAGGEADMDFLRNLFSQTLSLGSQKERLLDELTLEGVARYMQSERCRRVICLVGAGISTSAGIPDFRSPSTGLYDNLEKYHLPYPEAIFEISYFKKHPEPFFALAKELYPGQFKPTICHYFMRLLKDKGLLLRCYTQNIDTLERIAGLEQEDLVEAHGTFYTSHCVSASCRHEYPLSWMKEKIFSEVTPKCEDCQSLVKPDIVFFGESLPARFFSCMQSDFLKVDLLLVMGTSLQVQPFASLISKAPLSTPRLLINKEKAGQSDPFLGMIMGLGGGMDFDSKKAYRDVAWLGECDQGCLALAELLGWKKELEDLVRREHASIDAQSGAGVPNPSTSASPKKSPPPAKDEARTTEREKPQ

[3] = target: NAD-dependent protein deacetylase sirtuin-1 (Homo sapiens, UniProt Q96EB6); assay: Inhibition of SIRT1 (unknown origin) using fluorogenic substrate assessed as deacetylase activity incubated for 45 mins by fluorescence assay
NAD-dependent protein deacetylase sirtuin-1, sequence (Q96EB6 whole entry): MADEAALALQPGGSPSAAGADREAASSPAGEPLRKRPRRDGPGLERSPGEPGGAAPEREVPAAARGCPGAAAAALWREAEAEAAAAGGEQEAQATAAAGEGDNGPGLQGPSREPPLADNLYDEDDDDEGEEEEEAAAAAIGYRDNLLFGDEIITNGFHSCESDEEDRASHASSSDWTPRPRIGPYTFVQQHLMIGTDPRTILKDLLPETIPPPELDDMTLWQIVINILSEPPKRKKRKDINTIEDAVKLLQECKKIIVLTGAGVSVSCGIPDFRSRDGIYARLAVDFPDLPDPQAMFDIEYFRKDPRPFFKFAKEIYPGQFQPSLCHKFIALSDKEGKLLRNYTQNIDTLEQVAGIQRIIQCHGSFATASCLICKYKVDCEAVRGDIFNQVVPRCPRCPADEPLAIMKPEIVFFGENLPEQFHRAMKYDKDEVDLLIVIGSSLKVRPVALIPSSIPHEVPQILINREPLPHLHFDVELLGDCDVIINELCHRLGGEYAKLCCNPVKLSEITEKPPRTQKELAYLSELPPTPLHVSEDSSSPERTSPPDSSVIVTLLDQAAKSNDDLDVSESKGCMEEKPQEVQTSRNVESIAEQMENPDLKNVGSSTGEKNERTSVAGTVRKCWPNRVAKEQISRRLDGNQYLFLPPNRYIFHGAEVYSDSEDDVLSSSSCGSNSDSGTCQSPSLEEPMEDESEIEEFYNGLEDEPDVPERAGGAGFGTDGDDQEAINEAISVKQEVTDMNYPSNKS

[4] = target: NAD-dependent protein deacetylase sirtuin-3, mitochondrial (Homo sapiens, UniProt Q9NTG7); assay: Inhibition of SIRT3 (unknown origin) using fluorogenic substrate assessed as deacetylase activity incubated for 45 mins by fluorescence assay
NAD-dependent protein deacetylase sirtuin-3, mitochondrial, sequence (Q9NTG7 whole entry): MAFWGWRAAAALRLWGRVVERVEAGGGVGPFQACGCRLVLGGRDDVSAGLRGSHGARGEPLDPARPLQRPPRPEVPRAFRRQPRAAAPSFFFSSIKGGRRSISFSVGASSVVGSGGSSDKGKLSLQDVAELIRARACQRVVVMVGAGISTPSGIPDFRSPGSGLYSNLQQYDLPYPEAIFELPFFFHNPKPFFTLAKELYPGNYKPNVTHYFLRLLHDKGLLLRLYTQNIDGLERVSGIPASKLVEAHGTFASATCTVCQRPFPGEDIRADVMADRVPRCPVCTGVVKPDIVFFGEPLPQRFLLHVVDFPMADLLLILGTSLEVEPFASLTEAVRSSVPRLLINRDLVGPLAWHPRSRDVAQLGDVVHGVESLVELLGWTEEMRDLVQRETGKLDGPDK

[5] = target: NAD-dependent protein deacetylase sirtuin-2 (Homo sapiens) (UniProt Q8IXJ6); assay: (§1) Inhibition of SIRT2 (unknown origin) assessed as increase in alpha-tubulin acetylation after 2 hrs by alpha-tubulin acetyl-K40 assay
[6] = target: T1, NAD-dependent protein deacetylase sirtuin-2; assay: as §1
CCRF-CEM = assay: Growth inhibition of human CCRF-CEM cells at 10^-5 M incubated for 48 hrs by sulforhodamine B assay; format: functional; settings: read-out: GI
HL-60(TB) = assay: Growth inhibition of human HL-60(TB) cells at 10^-5 M incubated for 48 hrs by sulforhodamine B assay; format: functional; settings: HL-60, 48 h, read-out: GI
MOLT-4 = assay: Growth inhibition of human MOLT4 cells at 10^-5 M incubated for 48 hrs by sulforhodamine B assay; format: functional; settings: MOLT-4, 48 h, read-out: GI
HOP-62 = assay: Growth inhibition of human HOP62 cells at 10^-5 M incubated for 48 hrs by sulforhodamine B assay; format: functional; settings: HOP-62, 48 h, read-out: GI
NCI-H460 = assay: Growth inhibition of human NCI-H460 cells at 10^-5 M incubated for 48 hrs by sulforhodamine B assay; format: functional; settings: NCI-H460, 48 h, read-out: GI
NCI-H522 = assay: Growth inhibition of human NCI-H522 cells at 10^-5 M incubated for 48 hrs by sulforhodamine B assay; format: functional; settings: NCI-H522, 48 h, read-out: GI
HCT-116 = assay: Growth inhibition of human HCT116 cells at 10^-5 M incubated for 48 hrs by sulforhodamine B assay; format: functional; settings: HCT-116, 48 h, read-out: GI
HCT-15 = assay: Growth inhibition of human HCT15 cells at 10^-5 M incubated for 48 hrs by sulforhodamine B assay; format: functional; settings: HCT-15, 48 h, read-out: GI
KM12 = assay: Growth inhibition of human KM12 cells at 10^-5 M incubated for 48 hrs by sulforhodamine B assay; format: functional; settings: KM12, 48 h, read-out: GI
SF-295 = assay: Growth inhibition of human SF295 cells at 10^-5 M incubated for 48 hrs by sulforhodamine B assay; format: functional; settings: SF-295, 48 h, read-out: GI
SF-539 = assay: Growth inhibition of human SF539 cells at 10^-5 M incubated for 48 hrs by sulforhodamine B assay; format: functional; settings: SF-539, 48 h, read-out: GI
SNB-19 = assay: Growth inhibition of human SNB19 cells at 10^-5 M incubated for 48 hrs by sulforhodamine B assay; format: functional; settings: SNB-19, 48 h, read-out: GI
LOX IMVI = assay: Growth inhibition of human LOXIMVI cells at 10^-5 M incubated for 48 hrs by sulforhodamine B assay; format: functional; settings: read-out: GI
MDA-MB-435 = assay: Growth inhibition of human MDA-MB-435 cells at 10^-5 M incubated for 48 hrs by sulforhodamine B assay; format: functional; settings: MDA-MB-435, 48 h, read-out: GI
SK-MEL-2 = assay: Growth inhibition of human SK-MEL-2 cells at 10^-5 M incubated for 48 hrs by sulforhodamine B assay; format: functional; settings: SK-MEL-2, 48 h, read-out: GI
SK-MEL-28 = assay: Growth inhibition of human SK-MEL-28 cells at 10^-5 M incubated for 48 hrs by sulforhodamine B assay; format: functional; settings: SK-MEL-28, 48 h, read-out: GI
OVCAR-4 = assay: Growth inhibition of human OVCAR4 cells at 10^-5 M incubated for 48 hrs by sulforhodamine B assay; format: functional; settings: OVCAR-4, 48 h, read-out: GI
786-0 = assay: Growth inhibition of human 786-0 cells at 10^-5 M incubated for 48 hrs by sulforhodamine B assay; format: functional; settings: 786-0, 48 h, read-out: GI
UO-31 [7] = assay: Growth inhibition of human UO31 cells at 10^-5 M incubated for 48 hrs by sulforhodamine B assay; format: functional; settings: UO-31, 48 h, read-out: GI
T47D = assay: Growth inhibition of human T47D cells at 10^-5 M incubated for 48 hrs by sulforhodamine B assay; format: functional; settings: read-out: GI

## O=C1CSC2=Nc3c(sc4ccc(Cl)cc34)C(c3ccc4ccccc4c3)N12 (configuration not stated)
MCF7
  IC50: 2.34 µg/mL (≈ 5.56 µM)
UO-31 [1]
  IC50: 12.4 µg/mL (≈ 29.5 µM)
[2]
  IC50: 4.99 µM
[3]
  IC50: 4.3 µM
[4]
  IC50: 48.7 µM
[5]
  inhibition: Dose-dependent effect
[6]
  IC50: 76.1 µM
CCRF-CEM
  inhibition of growth at 10 µM: -4.04%
HL-60(TB)
  inhibition of growth at 10 µM: -2.82%
MOLT-4
  inhibition of growth at 10 µM: 13.7%
HOP-62
  inhibition of growth at 10 µM: 6.69%
NCI-H460
  inhibition of growth at 10 µM: -1.49%
NCI-H522
  inhibition of growth at 10 µM: 1.87%
HCT-116
  inhibition of growth at 10 µM: -7.67%
HCT-15
  inhibition of growth at 10 µM: 1.72%
KM12
  inhibition of growth at 10 µM: 3.7%
SF-295
  inhibition of growth at 10 µM: -4.03%
SF-539
  inhibition of growth at 10 µM: -2.59%
SNB-19
  inhibition of growth at 10 µM: -1.93%
LOX IMVI
  inhibition of growth at 10 µM: 9.15%
MDA-MB-435
  inhibition of growth at 10 µM: -5.65%
SK-MEL-2
  inhibition of growth at 10 µM: -6.76%
SK-MEL-28
  inhibition of growth at 10 µM: -15%
OVCAR-4
  inhibition of growth at 10 µM: 3.47%
786-0
  inhibition of growth at 10 µM: 2.84%
UO-31 [7]
  inhibition of growth at 10 µM: 37.4%
T47D
  inhibition of growth at 10 µM: 15.7%
